Test results taken from ChEMBL document CHEMBL1938264, “Novel 3,4-isoxazolediamides as potent inhibitors of chaperone heat shock protein 90” (J Med Chem, 2011).

Columns and labels:
[1] = target: Heat shock protein HSP 90-beta (Homo sapiens, UniProt P08238); experiment: Binding affinity to Hsp90 after 4 hrs by fluorescence polarization assay
NCI-H460 = experiment: Cytotoxicity against human NCI-H460 after 72 hrs by sulforhodamine B assay; format: functional, cell-based; settings: NCI-H460, 72 h

Sequence of Heat shock protein HSP 90-beta (P08238 whole entry): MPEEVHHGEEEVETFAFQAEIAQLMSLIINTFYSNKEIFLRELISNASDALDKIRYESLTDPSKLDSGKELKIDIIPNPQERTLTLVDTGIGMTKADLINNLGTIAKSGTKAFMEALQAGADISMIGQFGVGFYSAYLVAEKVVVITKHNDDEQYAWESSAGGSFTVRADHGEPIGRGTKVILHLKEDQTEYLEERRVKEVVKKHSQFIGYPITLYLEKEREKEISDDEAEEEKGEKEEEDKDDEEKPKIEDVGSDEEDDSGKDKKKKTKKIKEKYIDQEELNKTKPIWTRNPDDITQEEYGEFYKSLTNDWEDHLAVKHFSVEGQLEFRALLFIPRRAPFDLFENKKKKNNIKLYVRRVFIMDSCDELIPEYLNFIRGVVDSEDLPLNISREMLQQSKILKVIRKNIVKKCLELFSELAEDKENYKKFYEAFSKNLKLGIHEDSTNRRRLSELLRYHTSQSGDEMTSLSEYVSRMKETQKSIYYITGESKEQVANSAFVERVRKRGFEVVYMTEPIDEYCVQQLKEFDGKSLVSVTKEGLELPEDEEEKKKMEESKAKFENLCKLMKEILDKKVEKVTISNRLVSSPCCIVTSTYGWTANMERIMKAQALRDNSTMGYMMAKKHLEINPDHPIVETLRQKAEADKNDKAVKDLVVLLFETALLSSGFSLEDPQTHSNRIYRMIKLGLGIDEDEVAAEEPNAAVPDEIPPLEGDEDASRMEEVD

IC50 [1] [nM]	SMILES	IC50 (NCI-H460) [nM]
620	CCNC(=O)c1noc(-c2cc(Cl)c(O)cc2O)c1NC1CCCCC1	> 1000
> 100000	COc1ccc(C(=O)Nc2c(C(=O)N3CC(F)(F)C3)noc2-c2cc(Cl)c(O)cc2O)cc1	> 1000
32	CCNC(=O)c1noc(-c2cc(C(C)C)c(O)cc2O)c1NC(=O)c1ccc(-n2cccc2)cc1	> 1000
39	CCNC(=O)c1noc(-c2cc(C(C)C)c(O)cc2O)c1NC(=O)[C@@H]1CC[C@H](C(=O)O)C1	> 1000
36	CCNC(=O)c1noc(-c2cc(C(C)C)c(O)cc2O)c1NC(=O)c1cccc2cccnc12	490
8.6	CCNC(=O)c1noc(-c2cc(C(C)C)c(O)cc2O)c1NC(=O)[C@H]1CC[C@H](CNC)CC1	> 1000
24	CCNC(=O)c1noc(-c2cc(C(C)C)c(O)cc2O)c1NC(=O)C1CCN(C)CC1	> 1000
74	CCNC(=O)c1noc(-c2cc(Cl)c(O)cc2O)c1NC(=O)c1sccc1C	410
20	CCNC(=O)c1noc(-c2cc(C(C)C)c(O)cc2O)c1NC(=O)c1ccc2ccsc2c1	180
34	CCNC(=O)c1noc(-c2cc(C(C)C)c(O)cc2O)c1NC(=O)c1ccc(N(C)C)cc1	240
32	CCNC(=O)c1noc(-c2cc(C(C)C)c(O)cc2O)c1NC(=O)c1ccc(N2CCNCC2)cc1	> 1000
260	CCCCC[C@H]1CC[C@H](C(=O)Nc2c(C(=O)NCC)noc2-c2cc(C(C)C)c(O)cc2O)CC1	> 1000
< 5	CCNC(=O)c1noc(-c2cc(C(C)C)c(O)cc2O)c1NC(=O)[C@H]1CC[C@H](CO)CC1	600
55	CCNC(=O)c1noc(-c2cc(C(C)C)c(O)cc2O)c1NC(C)=O	81
1600	CCNC(=O)c1noc(-c2cc(Cl)c(O)cc2O)c1NC1CCN(C)CC1	> 1000
62	CCNC(=O)c1noc(-c2cc(C(C)C)c(O)cc2O)c1NC(=O)c1cc2ccccc2n1C	360
30	CCNC(=O)c1noc(-c2cc(C(C)C)c(O)cc2O)c1NC(=O)C1CCC(C(C)(C)C)CC1 (stereo unspecified)	200
12.6	CCNC(=O)c1noc(-c2cc(C(C)C)c(O)cc2O)c1NC(=O)[C@@H]1CC[C@H](CO)C1 (relative stereo)	> 260
168	CCNC(=O)c1noc(-c2cc(Cl)c(O)cc2O)c1NC(=O)CCN1CCOCC1	130
26	CCNC(=O)c1noc(-c2cc(C(C)C)c(O)cc2O)c1NC(=O)c1ccc(OC)cc1	17
< 5	CCNC(=O)c1noc(-c2cc(C(C)C)c(O)cc2O)c1NC(=O)[C@H]1CC[C@H](O)CC1	> 1000
184	CCNC(=O)c1noc(-c2cc(Cl)c(O)cc2O)c1NC(=O)c1ccc(OC)cc1	> 1000
< 5	CCNC(=O)c1noc(-c2cc(C(C)C)c(O)cc2O)c1NC(=O)[C@H]1CC[C@H](OC(=O)CN)CC1	> 1000
< 5	CCNC(=O)c1noc(-c2cc(C(C)C)c(O)cc2O)c1NC(=O)[C@H]1CC[C@H](N2CCOCC2)CC1	680
430	CCNC(=O)c1noc(-c2cc(Cl)c(O)cc2O)c1NCc1ccc(OC)cc1	> 1000
24	CCNC(=O)c1cc(C(=O)Nc2c(C(=O)NCC)noc2-c2cc(C(C)C)c(O)cc2O)on1	> 1000
< 5	CCNC(=O)c1noc(-c2cc(C(C)C)c(O)cc2O)c1NC(=O)[C@@H]1CC[C@H](C(=O)OC)C1	22

IC50 [1] [nM]	SMILES	IC50 (NCI-H460) [nM]
167	C=CC(=O)Nc1c(C(=O)NCC)noc1-c1cc(Cl)c(O)cc1O	> 1000
12	CCNC(=O)c1noc(-c2cc(C(C)C)c(O)cc2O)c1NC(=O)[C@@H]1CC[C@H](CN2CCOCC2)C1 (relative stereo)	170
27	CCNC(=O)c1noc(-c2cc(C(C)C)c(O)cc2O)c1NC(=O)c1sc(-c2ccncc2)nc1C	> 1000
24	CCNC(=O)c1noc(-c2cc(C(C)C)c(O)cc2O)c1NC(=O)c1ccc(N2CCN(C)CC2)cc1	> 1000
33	CCNC(=O)c1noc(-c2cc(C(C)C)c(O)cc2O)c1NC(=O)c1ccc2cc[nH]c2c1	170
40	CCNC(=O)c1noc(-c2cc(C(C)C)c(O)cc2O)c1NC(=O)c1nc(C)c(-c2ccc(F)cc2)s1	> 1000
153	CCNC(=O)c1noc(-c2cc(Cl)c(O)cc2O)c1NC(=O)c1ccc(Br)cc1	> 1000
14	CCNC(=O)c1noc(-c2cc(C(C)C)c(O)cc2O)c1NC(=O)C1CC(O)C1 (stereo unspecified)	920
22	CCNC(=O)c1noc(-c2cc(C(C)C)c(O)cc2O)c1NC(=O)c1ccc(Br)o1	19
130	CCNC(=O)c1noc(-c2cc(Cl)c(O)cc2O)c1NC(=O)c1cc(OC)c(OC)c(OC)c1	> 1000
10	CCNC(=O)c1noc(-c2cc(C(C)C)c(O)cc2O)c1NC(=O)c1sc(C)nc1C	560
< 5	CCNC(=O)c1noc(-c2cc(C(C)C)c(O)cc2O)c1NC(=O)C1CCNCC1	> 1000
< 5	CCNC(=O)c1noc(-c2cc(C(C)C)c(O)cc2O)c1NC(=O)[C@H]1CC[C@H](C(N)=O)CC1	> 1000
< 5	CCNC(=O)c1noc(-c2cc(C(C)C)c(O)cc2O)c1NC(=O)c1ccc(C)o1	16
240	CCNC(=O)c1noc(-c2cc(C(C)C)c(O)cc2O)c1NC(=O)C1CCC(C(F)(F)F)CC1 (stereo unspecified)	42
< 5	CCNC(=O)c1noc(-c2cc(C(C)C)c(O)cc2O)c1NC(=O)[C@H]1CC[C@@H](O)CC1	500
34	CCNC(=O)c1noc(-c2cc(C(C)C)c(O)cc2O)c1NC(=O)c1ccc(OC)c(F)c1	55
34	CCNC(=O)c1noc(-c2cc(C(C)C)c(O)cc2O)c1NC(=O)c1ccc2ccn(C)c2c1	87
250	CCNC(=O)c1noc(-c2cc(C(C)C)c(O)cc2O)c1NC(=O)c1cc(-c2ccccc2)on1	> 1000
8.8	CCNC(=O)c1noc(-c2cc(C(C)C)c(O)cc2O)c1NC(=O)[C@H]1CC[C@H](CN2CCOCC2)CC1	130
40	CCNC(=O)c1noc(-c2cc(C(C)C)c(O)cc2O)c1NC(=O)[C@H]1CC[C@H](CN)CC1	> 1000
37	CCNC(=O)c1noc(-c2cc(Cl)c(O)cc2O)c1NC(C)=O	> 1000
28	CCNC(=O)c1noc(-c2cc(C(C)C)c(O)cc2O)c1NC(=O)[C@H]1CC[C@H](N)CC1	> 1000
< 5	CCNC(=O)c1noc(-c2cc(C(C)C)c(O)cc2O)c1NC(=O)[C@H]1CC[C@H](CNS(=O)(=O)c2ccccc2)CC1	> 1000
260	CCNC(=O)c1noc(-c2cc(C(C)C)c(O)cc2O)c1NC(=O)c1oc2ccccc2c1C	> 1000
160	COc1ccc(C(=O)Nc2c(C(=O)NCC(F)(F)F)noc2-c2cc(Cl)c(O)cc2O)cc1	> 1000
